Test system: HEK293 cells
Test: HEK293 Cytotoxicity Assay (CellTiterGlo, CC50)
Assay type: cell-based, human
Description: Some exemplary assays and examples for assessing therapeutic efficacy, e.g., anticancer effects, of exemplary compounds of the invention are described herein or are well known in the art. HEK293 is a human kidney cell line, and efficacy on HEK293 is considered to be predictive of usefulness for therapeutic treatment.
HEK293 cells were obtained from American Type Culture Collection (ATCC) (Rockville Md.). Cells were maintained in Dulbecco's modified Eagle's medium (DMEM) (Invitrogen, Carlsbad, Calif.) with 10% fetal bovine serum (FBS), 10 mM HEPES and 1 mM sodium pyruvate. Cells were grown at 37° C. in a humidified incubator with a gas phase of 5% CO2. Cells were grown for 24 hours in a Tripleflask (NUNC) to −95% confluence and then resuspended for dispensing at 125,000 cells/mL of DMEM, 10% FBS, 10 mM Hepes and 1 mM sodium pyruvate.
HEK293 cells were seeded in 96 well microtiter plates at 10000 cells/well. After 24 hours of incubation an equal volume of fresh media containing test compounds at given concentrations was added. Plates were then incubated and cells were allowed to proliferate for 48 hours at 37° C., 95% humidity, and 5% CO2. […] A solution of Promega CellTiterGlo (100 microliters) was added by Thermo Combi and the plates were allowed to sit for 10 minutes before reading on a Perkin-Elmer EnVision with US LUM settings for 0.1 sec per well. […]

Structure (SMILES)	potency relative to AICAR in HEK293 assay (HEK293 cells, times the potency of AICAR)	activity on HEK293 cells (CC50, 50% cytotoxic concentration) (at 500 uM, 48 hours with compound)
NC(=O)c1ncn([C@@H]2O[C@H](COP(=O)(O)Oc3ccc([N+](=O)[O-])cc3)[C@@H](O)[C@H]2O)c1N [SB00039]	roughly 100 times	–
COP(=O)(OC)OC[C@H]1O[C@@H](n2cnc(C(N)=O)c2N)[C@H](O)[C@@H]1O [SB00024]	–	inactive
